{"source": "patent US8796031B2", "about": "“Microchip for platelet examination and platelet examination device using same” (Fujimori Kogyo Co., Ltd., priority 2010, dated 2014)", "system": "platelet aggregates", "experiment": "Platelet function test: inflow pressure of blood through collagen-coated microchip with plasma-treated channel dividing section (Test Example 3)", "type": "ex vivo", "conditions": "blood collected before and after dosing of 100 mg of aspirin, hirudin 25 μg/ml anticoagulation, flow rate 27 μl/minute or 9 μl/minute", "procedure": "Blood was collected from a sample before and after dosing of 100 mg of aspirin, and each obtained blood was subjected to anticoagulation treatment with hirudin (25 μg/ml). The anticoagulated blood was subjected to flow through the channel of a microchip having a plasma-treated channel dividing section. More particularly, the reservoir 109 was filled with anticoagulated blood (before and after dosing of 100 mg of aspirin), and the pump 111 was filled with mineral oil. The pump 111 was connected to the reservoir 109, and a tip of the reservoir 109 was connected to the inlet 106 of the microchip 1. By injecting mineral oil from the pump 111 at a flow rate of 27 μl/minute or 9 μl/minute into the reservoir to overlay the mineral oil on the blood, the blood in the reservoir was pushed into the microchip 1 at the same flow rate, while the inflow pressure of the mineral oil (that is, the inflow pressure of the blood) was measured with a pressure sensor which is not shown.\nIn the case where the microchip having a plasma-untreated channel dividing section was used, the pressure increase was insufficient and the effect of aspirin could be therefore hardly identified. […]\nThus, the plasma irradiation increased the pressure to a higher level, and the stability of platelet aggregates under high-flow-rate conditions could be analyzed more accurately."}
{"smiles": "CC(=O)Oc1ccccc1C(=O)O", "note": "[aspirin]", "values": [{"measurement": "effect of aspirin on platelet aggregation (inflow pressure of blood)", "result": "decrease the stability of formed platelet aggregates rather than an effect to decrease the formation rate of platelet aggregates"}]}
